Data as given in article PMC5564715, “Acetyl-CoA carboxylase inhibitors attenuate WNT and Hedgehog signaling and suppress pancreatic tumor growth” (Oncotarget, 2016).

Columns and labels:
ACC2 = target: T1, ACC2 (Homo sapiens, UniProt O00763); experiment: ACC2 inhibition IC50 (assay details not given; Supplementary Figure S1A); assay type: biochemical
T1 construct: gene ACACB

ACC1 = target: T2, ACC1 (Homo sapiens, UniProt Q13085); experiment: ACC1 inhibition IC50 (assay details not given; Supplementary Figure S1A); assay type: biochemical
T2 construct: gene ACACA

T1 sequence (O00763 whole entry): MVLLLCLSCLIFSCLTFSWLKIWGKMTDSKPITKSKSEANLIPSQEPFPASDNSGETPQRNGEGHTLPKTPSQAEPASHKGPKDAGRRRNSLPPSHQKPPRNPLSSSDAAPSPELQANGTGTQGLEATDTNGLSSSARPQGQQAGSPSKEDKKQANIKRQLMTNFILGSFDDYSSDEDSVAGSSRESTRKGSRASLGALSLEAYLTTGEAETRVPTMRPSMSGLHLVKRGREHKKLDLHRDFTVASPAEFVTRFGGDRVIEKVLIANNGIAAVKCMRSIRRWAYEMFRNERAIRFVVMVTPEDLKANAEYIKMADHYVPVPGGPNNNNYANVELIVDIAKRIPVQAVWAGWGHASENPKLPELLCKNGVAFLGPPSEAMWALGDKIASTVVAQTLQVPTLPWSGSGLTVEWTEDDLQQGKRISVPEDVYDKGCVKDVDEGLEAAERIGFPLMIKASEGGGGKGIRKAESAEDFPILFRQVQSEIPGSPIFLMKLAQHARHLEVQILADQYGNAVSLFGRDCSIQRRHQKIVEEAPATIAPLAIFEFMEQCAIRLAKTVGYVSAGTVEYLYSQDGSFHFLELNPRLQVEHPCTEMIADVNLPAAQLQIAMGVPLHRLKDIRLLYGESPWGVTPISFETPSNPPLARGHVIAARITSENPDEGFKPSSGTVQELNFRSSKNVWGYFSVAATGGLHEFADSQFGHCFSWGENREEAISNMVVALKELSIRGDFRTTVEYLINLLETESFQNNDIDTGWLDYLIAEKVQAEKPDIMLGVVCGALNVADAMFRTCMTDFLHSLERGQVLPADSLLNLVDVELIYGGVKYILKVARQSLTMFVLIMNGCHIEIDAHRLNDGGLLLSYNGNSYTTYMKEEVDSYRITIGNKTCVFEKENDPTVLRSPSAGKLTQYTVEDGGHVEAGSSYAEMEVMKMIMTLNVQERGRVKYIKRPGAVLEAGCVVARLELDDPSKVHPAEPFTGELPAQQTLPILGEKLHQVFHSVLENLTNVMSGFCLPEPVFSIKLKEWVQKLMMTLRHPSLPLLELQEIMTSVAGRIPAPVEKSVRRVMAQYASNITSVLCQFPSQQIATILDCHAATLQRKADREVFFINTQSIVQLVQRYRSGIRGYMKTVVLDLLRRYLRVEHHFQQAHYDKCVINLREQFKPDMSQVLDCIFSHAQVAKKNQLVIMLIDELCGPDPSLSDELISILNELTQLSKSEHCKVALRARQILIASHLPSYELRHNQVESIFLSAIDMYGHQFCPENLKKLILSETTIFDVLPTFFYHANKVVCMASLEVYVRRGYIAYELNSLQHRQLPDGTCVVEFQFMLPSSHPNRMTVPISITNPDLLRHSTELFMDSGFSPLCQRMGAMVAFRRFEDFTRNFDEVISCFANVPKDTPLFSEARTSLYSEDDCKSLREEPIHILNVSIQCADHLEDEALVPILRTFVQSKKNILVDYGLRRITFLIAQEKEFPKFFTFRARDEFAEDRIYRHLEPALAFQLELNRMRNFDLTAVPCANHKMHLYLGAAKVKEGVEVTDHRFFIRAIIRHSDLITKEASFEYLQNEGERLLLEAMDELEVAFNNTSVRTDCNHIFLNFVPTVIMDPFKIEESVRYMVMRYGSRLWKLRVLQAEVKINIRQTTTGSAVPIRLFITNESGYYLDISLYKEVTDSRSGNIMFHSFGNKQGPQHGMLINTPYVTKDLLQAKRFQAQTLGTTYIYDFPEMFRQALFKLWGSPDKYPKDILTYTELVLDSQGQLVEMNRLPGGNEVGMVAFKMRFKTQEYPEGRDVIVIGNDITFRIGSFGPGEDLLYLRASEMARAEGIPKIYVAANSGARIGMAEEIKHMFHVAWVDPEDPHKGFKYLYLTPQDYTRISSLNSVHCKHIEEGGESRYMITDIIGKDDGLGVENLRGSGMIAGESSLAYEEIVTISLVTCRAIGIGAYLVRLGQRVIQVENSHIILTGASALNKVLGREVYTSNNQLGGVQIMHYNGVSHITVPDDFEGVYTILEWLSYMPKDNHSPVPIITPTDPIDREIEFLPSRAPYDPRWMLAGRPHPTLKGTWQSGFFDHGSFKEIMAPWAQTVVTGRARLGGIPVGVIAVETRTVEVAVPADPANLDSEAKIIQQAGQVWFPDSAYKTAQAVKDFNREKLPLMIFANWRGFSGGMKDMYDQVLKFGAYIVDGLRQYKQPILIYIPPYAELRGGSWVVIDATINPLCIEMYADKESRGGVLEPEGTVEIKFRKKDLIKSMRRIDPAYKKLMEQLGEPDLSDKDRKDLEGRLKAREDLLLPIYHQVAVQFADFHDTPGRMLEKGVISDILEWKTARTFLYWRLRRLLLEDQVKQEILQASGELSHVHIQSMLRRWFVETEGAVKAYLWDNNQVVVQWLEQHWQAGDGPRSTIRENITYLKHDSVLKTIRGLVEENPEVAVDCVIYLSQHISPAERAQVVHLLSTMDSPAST

IC50 (ACC2) | IC50 (ACC1) | Substance
2600 nM | 280 nM | BAY ACC001
1400 nM | 100 nM | BAY ACC002
